Measurements as given in publication PMC4232510, “Identification of Functionally Important Residues of the Rat P2X4 Receptor by Alanine Scanning Mutagenesis of the Dorsal Fin and Left Flipper Domains” (PLoS ONE, 2014).
Positions count from the first letter of the chain named. Values belong to the molecule of their own block, whether it stands above or below them.

Legend:
Experiment in all cases: whole-cell patch clamp, HEK293T cells expressing mutant
Format in all cases: cell-based
Details in all cases: for relative responsiveness: 100 µM agonist 2 s, relative to ATP (100%)
rP2X4R Y292A mutant = target: T1, rP2X4R Y292A mutant (Rattus norvegicus, UniProt P51577, Y292A)
T1 construct: expressed in transfected cells; host or cells: HEK293T
T1 sequence (P51577 1-388 Y292A): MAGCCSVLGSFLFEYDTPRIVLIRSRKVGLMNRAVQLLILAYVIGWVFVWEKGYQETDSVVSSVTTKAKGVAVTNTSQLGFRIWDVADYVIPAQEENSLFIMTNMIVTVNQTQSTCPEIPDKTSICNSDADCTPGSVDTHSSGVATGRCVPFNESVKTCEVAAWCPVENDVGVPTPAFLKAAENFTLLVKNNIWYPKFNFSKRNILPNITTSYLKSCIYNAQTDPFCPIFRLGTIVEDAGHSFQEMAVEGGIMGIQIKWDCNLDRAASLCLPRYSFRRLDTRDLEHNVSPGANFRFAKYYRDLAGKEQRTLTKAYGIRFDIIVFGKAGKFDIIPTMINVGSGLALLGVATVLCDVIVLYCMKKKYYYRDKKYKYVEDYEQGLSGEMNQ

rP2X4R L206A mutant = target: T2, rP2X4R L206A mutant (Rattus norvegicus, UniProt P51577, L206A)
T2 construct: expressed in transfected cells; host or cells: HEK293T
T2 sequence (P51577 1-388 L206A): T1 sequence (P51577 1-388 Y292A) with L206A, A292Y

rP2X4R P290A mutant = target: T3, rP2X4R P290A mutant (Rattus norvegicus, UniProt P51577, P290A)
T3 construct: expressed in transfected cells; host or cells: HEK293T
T3 sequence (P51577 1-388 P290A): T1 sequence (P51577 1-388 Y292A) with P290A, A292Y

[1] = 100 µM ATP 60 s, biexponential fit
[2] = contribution of τdes2, 100 µM ATP 60 s
[3] = decay after removal of 1 or 3 µM ATP, 3 µM IVM
[4] = naïve receptors, 2–5 s application
[5] = 3 µM IVM 4-6 min vs IVM-untreated

Molecule: 2′(3′-O-(4-Benzoylbenzoyl)adenosine 5′-triphosphate [BzATP]
relative responsiveness (rP2X4R Y292A mutant): 28.9±8.2% | relative responsiveness (rP2X4R L206A mutant): 33.7±8.0% | relative responsiveness (rP2X4R P290A mutant): 16.9±3.2 %

relative responsiveness (rP2X4R Y292A mutant): 49.8±8.6% | relative responsiveness (rP2X4R L206A mutant): 68.3±6.5% | relative responsiveness (rP2X4R P290A mutant): 50.7±3.7%
Molecule: CSc1nc(N)c2ncn([C@@H]3O[C@H](COP(=O)(O)OP(=O)(O)OP(=O)(O)O)[C@@H](O)[C@H]3O)c2n1 [2-MeS-ATP, 2-(Methylthio)adenosine 5′-triphosphate]

Molecule: Nc1ncnc2c1ncn2[C@@H]1O[C@H](COP(=O)(O)OP(=O)(O)OP(=O)(O)O)[C@@H](O)[C@H]1O [ATP]
τdes1 (rP2X4R Y292A mutant; [1]): 1.9 ± 0.2 s | τdes2 (rP2X4R Y292A mutant; [1]): 15.8 ± 0.2 s | Imax (rP2X4R Y292A mutant; 100–1000 µM ATP): 1.9 ± 0.3 nA | Imax+IVM (rP2X4R Y292A mutant; ATP after 3 µM IVM 4-6 min): 4.3 ± 0.3 nA | A2 /(A1+A2) (rP2X4R Y292A mutant; [2]): 57 ± 3% | τoff +IVM (rP2X4R Y292A mutant; [3]): 11 ± 1.2 s | EC50 (rP2X4R Y292A mutant; [4]): 7.2 ± 1.9 µM | τdes (rP2X4R Y292A mutant; weighted, 100 µM ATP 60 s): 10 ± 1.5 s | τdes1 (rP2X4R L206A mutant; [1]): 1.1 ± 0.2 s | τdes2 (rP2X4R L206A mutant; [1]): 8.9 ± 2.2 s | Imax (rP2X4R L206A mutant; 100–1000 µM ATP): 2.4 ± 0.3 nA | Imax+IVM (rP2X4R L206A mutant; ATP after 3 µM IVM 4-6 min): 4.8 ± 0.8 nA | A2 /(A1+A2) (rP2X4R L206A mutant; [2]): 70 ± 4% | τoff +IVM (rP2X4R L206A mutant; [3]): 9.0 ± 1.4 s | EC50 (rP2X4R L206A mutant; [4]): 10 ± 4.1 µM | τdes (rP2X4R L206A mutant; weighted, 100 µM ATP 60 s): 6.3 ± 1.6 s | τdes1 (rP2X4R P290A mutant; [1]): 0.8 ± 0.1 s | τdes2 (rP2X4R P290A mutant; [1]): 12.0 ± 1.5 s | Imax (rP2X4R P290A mutant; 100–1000 µM ATP): 0.9 ± 0.1 nA | Imax+IVM (rP2X4R P290A mutant; ATP after 3 µM IVM 4-6 min): 3.3 ± 0.5 nA | A2 /(A1+A2) (rP2X4R P290A mutant; [2]): 53 ± 3% | τoff +IVM (rP2X4R P290A mutant; [3]): 13 ± 1.4 s | EC50 (rP2X4R P290A mutant; [4]): 8 ± 3.4 µM | τdes (rP2X4R P290A mutant; weighted, 100 µM ATP 60 s): 6.6 ± 0.5 s

relative responsiveness (rP2X4R Y292A mutant): 42.3±7.0% | relative responsiveness (rP2X4R L206A mutant): 39.6±8.4% | relative responsiveness (rP2X4R P290A mutant): 37.0±11.0%
Molecule: Nc1ncnc2c1ncn2[C@@H]1O[C@H](CO[P@](=O)(O)O[P@](=O)(O)O[P@@](=O)(O)S)[C@@H](O)[C@H]1O [ATPγS, Adenosine 5′-(γ-thio)triphosphate]

Molecule: CC[C@H](C)[C@H]1O[C@]2(CC[C@@H]1C)C[C@@H]1C[C@@H](C/C=C(\C)[C@@H](O[C@H]3C[C@H](OC)[C@@H](O[C@H]4C[C@H](OC)[C@@H](O)[C@H](C)O4)[C@H](C)O3)[C@@H](C)/C=C/C=C3\CO[C@@H]4[C@H](O)C(C)=C[C@@H](C(=O)O1)[C@]34O)O2 [IVM, ivermectin]
Fold incr. Imax (rP2X4R Y292A mutant; [5]): 2.0 ± 0.3 fold | Fold incr. Imax (rP2X4R L206A mutant; [5]): 1.7 ± 0.2 fold | Fold incr. Imax (rP2X4R P290A mutant; [5]): 3.7 ± 0.2 fold

Molecule: Nc1ncnc2c1ncn2C1OC(COP(=O)(O)CP(=O)(O)OP(=O)(O)O)C(O)C1O (stereo not drawn) [α,β-meATP, α,β-methyleneadenosine 5′-triphosphate]
relative responsiveness (rP2X4R Y292A mutant): 16.2±4.4 % | relative responsiveness (rP2X4R L206A mutant): 27.5±2.5% | relative responsiveness (rP2X4R P290A mutant): 17.8±2.4 %
